According to PMC10005332, “It Takes Two to Tango, Part II: Synthesis of A-Ring Functionalised Quinones Containing Two Redox-Active Centres with Antitumour Activities” (Molecules, 2023):
pIC50: −log10 of the molar value. Read-outs that look alike come from different tables or passages of the source.

Columns and labels:
[1] = tested on: SNB-19 (human astrocytoma); test: MTT cytotoxicity assay, SNB-19; assay type: cell-based; conditions: for pIC50: Homo sapiens, SNB-19, MTT, 72 h exposure, three independent experiments, read-out: Cytotoxic activity IC50 (95% CI) SNB-19; for Selectivity index SNB-19: ratio of cytotoxicity L929 / SNB-19
Procedure: (§1) In this study, the IC50 was obtained in micromolar concentrations, using the colourimetric MTT (3-(4,5-dimethylthiazol-2-yl)-2,5-diphenyl tetrazolium bromide)) assay, and doxorubicin was used as the positive control. […] The activity against the non-tumoural murine fibroblast cell line L929 was also evaluated in order to study the cytotoxicity behaviour of each compound and to understand their respective relative selectivity. The selectivity index was obtained using the ratio of measured cytotoxicity between the L929 cell line and each of the cancer cell lines, and the results are presented in Table 2.
(§2) The in vitro cytotoxicity activity of the compounds was evaluated by the colorimetric MTT (3-(4,5-dimethylthiazol-2-yl)-2,5-diphenyl tetrazolium bromide)) assay using the following tumor cell lines: HCT-116 (colon carcinoma), PC3 (prostate), SNB-19 (glioblastoma), K-562 (myelogenous leukaemia), HL-60 (human promyelocytic leukaemia), B16 (murine melanoma), A549 (human lung carcinoma), KG1 (human acute myeloid leukaemia), and RAJI (human Burkitt’s lymphoma), which were provided by the National Cancer Institute (Bethesda, MD, USA). The L929 cell line (mouse fibroblast L cells NCTC clone 929) employed in this study as a control cell line was obtained from the American Type Culture Collection (Manassas, VA, USA). The cell lines (Table S4) were maintained in flasks containing RPMI 1640 or DMEM medium supplemented with 10% bovive fetal sérum, 100 U/mL penicillin, and 100 μg/mL streptomycin at 37 °C and in 5% CO2 atmosphere. The compounds tested were dissolved in DMSO. Doxorubicin served as the positive control. Cell treatments were performed with three replicates and the cells were mycoplasma free. After 72 h incubation, 100 μL of MTT solution (0.5 mg/mL) was added to each well, and the cells were incubated for 3 h. The supernatant was removed and 100 μL of DMSO was added and the absorbance at 595 nm was measured using Victor Nivo Multimode plate reader (PerkinElmer, Waltham, MA, USA). The absorbances obtained were used to calculate the IC50 values by nonlinear regression employing appropriate statistical software.
(§3) The in vitro cytotoxicity activity of compounds was evaluated by the colorimetric MTT (3-(4,5-dimethylthiazol-2-yl)-2,5-diphenyl tetrazolium bromide)) assay using tumor cell lines: HCT-116 (colon carcinoma), PC3 (prostate), SNB-19 (glioblastoma), K-562 (myelogenous leukaemia), HL-60 (human promyelocytic leukaemia), B16 (murine melanoma), A549 (human lung carcinoma), KG1 (human acute myeloid leukaemia) and RAJI (human Burkitt's lymphoma), which were provided by the National Cancer Institute (Bethesda, MD, USA). The L929 cell line (mouse fibroblast L cells NCTC clone 929) employed in this study as a control cell line was obtained from the American Type Culture […]
(§4) Collection (Manassas, VA, USA). Cell lines (Table 01) were maintained in flasks containing RPMI 1640 or DMEM medium supplemented with 10% bovive fetal sérum, 100 U/mL penicillin, and 100 μg/mL streptomycin at 37 °C and 5% CO2 atmosphere.
(§5) Compounds tested were dissolved in DMSO. Doxorubicin served as positive control. Cell treatments were performed with three replicates and cells were mycoplasma-free. After 72 h incubation, 100 μL of MTT solution (0.5 mg/mL) was added to each well, and cells were incubated for 3 h. The supernatant was removed and 100 μL of DMSO was added and the absorbance at 595 nm was measured using Victor Nivo Multimode plate reader

[2] = tested on: B16 (murine melanoma); test: MTT cytotoxicity assay, B16; assay type: cell-based; conditions: for pIC50: Mus musculus, MTT, 72 h exposure, three independent experiments, read-out: Cytotoxic activity IC50 (95% CI) B16; for Selectivity index B16: ratio of cytotoxicity L929 / B16
Procedure: as §1, §2, §3, §4, §5

[3] = MTT cytotoxicity assay, L929 control line; assay type: cell-based, mouse; conditions: mouse, L929 fibroblast cells (non-tumoral control line), 72 h exposure, read-out: Cytotoxic activity IC50 (95% CI) L929
Procedure: as §1, §2, §3, §4, §5

[4] = tested on: KG1 (human acute myeloid leukaemia); test: MTT cytotoxicity assay, KG1; assay type: cell-based; conditions: for pIC50: Homo sapiens, MTT, 72 h exposure, three independent experiments, read-out: Cytotoxic activity IC50 (95% CI) KG1; for Selectivity index KG1: ratio of cytotoxicity L929 / KG1
Procedure: as §1, §2, §3, §4, §5

[5] = tested on: RAJI (human Burkitt’s lymphoma); test: MTT cytotoxicity assay, RAJI; assay type: cell-based; conditions: for pIC50: Homo sapiens, Raji, 72 h, MTT, 72 h exposure, three independent experiments, read-out: Cytotoxic activity IC50 (95% CI) RAJI; for Selectivity index RAJI: ratio of cytotoxicity L929 / RAJI
Procedure: as §1, §2, §3, §4, §5

[6] = tested on: PC3 (human prostate adenocarcinoma); test: MTT cytotoxicity assay, PC3; assay type: cell-based; conditions: for pIC50: Homo sapiens, MTT, 72 h exposure, three independent experiments, read-out: Cytotoxic activity IC50 (95% CI) PC3; for Selectivity index PC3: ratio of cytotoxicity L929 / PC3
Procedure: as §1, §2, §3, §4, §5

[7] = tested on: HL60 (human pro-myelocytic leukaemia); test: MTT cytotoxicity assay, HL60; assay type: cell-based; conditions: for pIC50: MTT, 72 h exposure, three independent experiments, read-out: Cytotoxic activity IC50 (95% CI) HL60; for Selectivity index HL60: ratio of cytotoxicity L929 / HL60
Procedure: as §1, §2, §3, §4, §5

[8] = tested on: HCT-116 (human colorectal carcinoma); test: MTT cytotoxicity assay, HCT-116; assay type: cell-based; conditions: for pIC50: Homo sapiens, HCT-116, 72 h, MTT, 72 h exposure, three independent experiments, read-out: Cytotoxic activity IC50 (95% CI) HCT-116; for Selectivity index HCT-116: ratio of cytotoxicity L929 / HCT-116
Procedure: as §1, §2, §3, §4, §5

[9] = tested on: A549 (human lung carcinoma); test: MTT cytotoxicity assay, A549; assay type: cell-based; conditions: for pIC50: Homo sapiens, A549, MTT, 72 h exposure, three independent experiments, read-out: Cytotoxic activity IC50 (95% CI) A549; for Selectivity index A549: ratio of cytotoxicity L929 / A549
Procedure: as §1, §2, §3, §4, §5

[10] = tested on: K-562 (human chronic myeloid leukaemia); test: MTT cytotoxicity assay, K-562; assay type: cell-based; conditions: for pIC50: Homo sapiens, K562, MTT, 72 h exposure, three independent experiments, read-out: Cytotoxic activity IC50 (95% CI) K-562; for Selectivity index K-562: ratio of cytotoxicity L929 / K-562
Procedure: as §1, §2, §3, §4, §5

CC1(C)OC2=C(CC1Cn1cc(CNC3=CC(=O)c4cccc(OCc5ccccc5)c4C3=O)nn1)C(=O)C(=O)c1ccccc12 (stereo not shown) [Compound 21d, 3-((4-(((8-benzyloxy-1,4-dioxo-1,4-dihydronaphthalen-2-yl)amino)methyl)-1H-1,2,3-triazol-1-yl)methyl)-2,2-dimethyl-3,4-dihydro-2H-benzo[h]chromene-5,6-dione]
pIC50 [1]: 5.42 | Selectivity index SNB-19 [1]: 1.4 | pIC50 [2]: 5.29 | Selectivity index B16 [2]: 1.0 | IC50 at 72 h [3]: 5.27 µM | pIC50 [4]: 4.94 | Selectivity index KG1 [4]: 0.5 | pIC50 [5]: 4.54 | Selectivity index RAJI [5]: 0.2 | pIC50 [6]: 5.01 | Selectivity index PC3 [6]: 0.5 | pIC50 ([7]; Homo sapiens, HL-60, 72 h): 6.05 | Selectivity index HL60 [7]: 5.9 | pIC50 [8]: 5.38 | Selectivity index HCT-116 [8]: 1.3 | pIC50 [9]: 5.58 | Selectivity index A549 [9]: 2.0 | pIC50 [10]: 5.00 | Selectivity index K-562 [10]: 0.5

CC1(C)OC2=C(CC1Cn1cc(CNC3=CC(=O)c4c(O)cccc4C3=O)nn1)C(=O)C(=O)c1ccccc12 (stereo not shown) [Compound 21b, 3-((4-(((5-hydroxy-1,4-dioxo-1,4-dihydronaphthalen-2-yl)amino)methyl)-1H-1,2,3-triazol-1-yl)methyl)-2,2-dimethyl-3,4-dihydro-2H-benzo[h]chromene-5,6-dione]
pIC50 [1]: 5.37 | Selectivity index SNB-19 [1]: 0.5 | pIC50 [2]: 5.40 | Selectivity index B16 [2]: 0.5 | IC50 at 72 h [3]: 2.07 µM | pIC50 [4]: 5.52 | Selectivity index KG1 [4]: 0.7 | pIC50 [5]: 5.70 | Selectivity index RAJI [5]: 1.0 | pIC50 [6]: 5.41 | Selectivity index PC3 [6]: 0.5 | pIC50 ([7]; Homo sapiens, HL-60, 72 h): 5.65 | Selectivity index HL60 [7]: 0.9 | pIC50 [8]: 5.79 | Selectivity index HCT-116 [8]: 1.3 | pIC50 [9]: 5.77 | Selectivity index A549 [9]: 1.2 | pIC50 [10]: 5.38 | Selectivity index K-562 [10]: 0.5

CC1(C)OC2=C(C(=O)C(=O)c3ccccc32)C1N=[N+]=[N-] (stereo not shown) [Compound 4, 3-azido-2,2-dimethyl-2,3-dihydronaphtho[1,2-b]furan-4,5-dione]
pIC50 [1]: 5.68 | Selectivity index SNB-19 [1]: 1.3 | pIC50 [2]: 5.75 | Selectivity index B16 [2]: 1.5 | IC50 at 72 h [3]: 2.74 µM | pIC50 [4]: 5.22 | Selectivity index KG1 [4]: 0.5 | pIC50 [5]: 5.61 | Selectivity index RAJI [5]: 1.1 | pIC50 [6]: 5.23 | Selectivity index PC3 [6]: 0.5 | pIC50 ([7]; Homo sapiens, HL-60, 72 h): 5.97 | Selectivity index HL60 [7]: 2.5 | pIC50 [8]: 5.71 | Selectivity index HCT-116 [8]: 1.4 | pIC50 [9]: 5.44 | Selectivity index A549 [9]: 0.8 | pIC50 [10]: 5.85 | Selectivity index K-562 [10]: 1.9

CC1(C)OC2=C(CC1Cn1cc(CNC3=CC(=O)c4cc5ccccc5cc4C3=O)nn1)C(=O)C(=O)c1ccccc12 (stereo not shown) [Compound 21e, 3-((4-(((1,4-dioxo-1,4-dihydroanthracen-2-yl)amino)methyl)-1H-1,2,3-triazol-1-yl)methyl)-2,2-dimethyl-3,4-dihydro-2H-benzo[h]chromene-5,6-dione]
pIC50 [1]: 5.88 | Selectivity index SNB-19 [1]: 1.3 | pIC50 [2]: 5.54 | Selectivity index B16 [2]: 0.6 | IC50 at 72 h [3]: 1.71 µM | pIC50 [4]: 5.38 | Selectivity index KG1 [4]: 0.4 | pIC50 [5]: 5.17 | Selectivity index RAJI [5]: 0.3 | pIC50 [6]: 5.54 | Selectivity index PC3 [6]: 0.6 | pIC50 ([7]; Homo sapiens, HL-60, 72 h): 6.30 | pIC50 [7]: 6.59 | Selectivity index HL60 [7]: 6.6 | pIC50 [8]: 5.76 | Selectivity index HCT-116 [8]: 1.0 | pIC50 [9]: 6.06 | Selectivity index A549 [9]: 1.9 | pIC50 [10]: 5.43 | Selectivity index K-562 [10]: 0.5

CC1(C)OC2=C(C(=O)C(=O)c3ccccc32)C1n1cc(CNC2=CC(=O)c3c(I)cccc3C2=O)nn1 (stereo not shown) [Compound 19a, 3-(4-(((5-iodo-1,4-dioxo-1,4-dihydronaphthalen-2-yl)amino)methyl)-1H-1,2,3-triazol-1-yl)-2,2-dimethyl-2,3-dihydronaphtho[1,2-b]furan-4,5-dione]
pIC50 [1]: 6.00 | Selectivity index SNB-19 [1]: 1.2 | pIC50 [2]: 5.73 | Selectivity index B16 [2]: 0.6 | IC50 at 72 h [3]: 1.21 µM | pIC50 [4]: 5.86 | Selectivity index KG1 [4]: 0.9 | pIC50 [5]: 5.69 | Selectivity index RAJI [5]: 0.6 | pIC50 [6]: 5.44 | Selectivity index PC3 [6]: 0.3 | pIC50 ([7]; Homo sapiens, HL-60, 72 h): 6.36 | Selectivity index HL60 [7]: 2.8 | pIC50 [8]: 6.00 | Selectivity index HCT-116 [8]: 1.2 | pIC50 [9]: 5.59 | Selectivity index A549 [9]: 0.5 | pIC50 [10]: 5.92 | Selectivity index K-562 [10]: 1.0

CC1(C)OC2=C(C(=O)C(=O)c3ccccc32)C1n1cc(CNC2=CC(=O)c3c(O)cccc3C2=O)nn1 (stereo not shown) [Compound 19b, 3-(4-(((5-hydroxy-1,4-dioxo-1,4-dihydronaphthalen-2-yl)amino)methyl)-1H-1,2,3-triazol-1-yl)-2,2-dimethyl-2,3-dihydronaphtho[1,2-b]furan-4,5-dione]
pIC50 [1]: 5.47 | Selectivity index SNB-19 [1]: 1.8 | pIC50 [2]: 5.45 | Selectivity index B16 [2]: 1.7 | IC50 at 72 h [3]: 5.97 µM | pIC50 [4]: 5.28 | Selectivity index KG1 [4]: 1.1 | pIC50 [5]: 5.59 | Selectivity index RAJI [5]: 2.3 | pIC50 [6]: 5.50 | Selectivity index PC3 [6]: 1.9 | pIC50 ([7]; Homo sapiens, HL-60, 72 h): 6.00 | Selectivity index HL60 [7]: 6.0 | pIC50 [8]: 5.77 | Selectivity index HCT-116 [8]: 3.5 | pIC50 [9]: 5.50 | Selectivity index A549 [9]: 1.9 | pIC50 [10]: 5.50 | Selectivity index K-562 [10]: 1.9
